Broadly, the IC50 is the concentration that gives 50% inhibition.

Assay [1] concerns the target Histone deacetylase (HDAC1 and HDAC2) (Homo sapiens, UniProt Q13547+Q92769). As to the kind of experiment: Inhibition of HDAC1/HDAC2 in human HeLa cell extract incubated for 5 mins prior to substrate addition measured after 30 mins by microtitre plate reader analysis. The format is cell-based.
Assay [2] is described as follows: Antiproliferative activity against human PC3 cells after 48 hrs by MTT assay. The format is functional, cell-based. Particulars: PC-3, 48 h. In general terms: Formazan colour is commonly taken as a measure of viable cells.
The subject of a further assay is K562. As to the kind of experiment: Antiproliferative activity against human K562 cells after 48 hrs by MTT assay. Type of assay: functional, cell-based. Conditions: K562, 48 h.
The next assay deals with MDA-MB-231. As to the kind of experiment: Antiproliferative activity against human MDA-MB-231 cells after 48 hrs by MTT assay. The format is functional, cell-based. Conditions: MDA-MB-231, 48 h.

As for `O=C(CCCCCC(=O)Nc1nnc(-c2ccc(Br)cc2)s1)NO`, the IC50 in assay [1] worked out at 1.285 µM. On the same count and under the same terms, to `O=C(CCCCCC(=O)Nc1nnc(-c2ccc(N3CCOCC3)cc2)s1)NO` belongs over 5 µM; to `CN(C)c1ccc(-c2nnc(NC(=O)CCCCCC(=O)NO)s2)cc1`, over 5 µM; to `COc1ccc(-c2nnc(NC(=O)CCCCCC(=O)NO)s2)cc1`, 0.437 µM.

In assay [1], `COc1ccc(-c2nnc(NC(=O)CCCCCC(=O)NO)s2)cc1OC` gave an IC50 of 0.487 µM. The same measure, in the same setting: with `Cc1ccc(-c2nnc(NC(=O)CCCCCC(=O)NO)s2)cc1` the figure was 0.422 µM; with `O=C(CCCCCC(=O)Nc1nnc(-c2ccc(-c3ccccc3)cc2)s1)NO`, over 5 µM. Same read-out and setting: with `O=C(CCCCCC(=O)Nc1nnc(-c2ccc(F)cc2)s1)NO` the figure was 0.741 µM; with `O=C(CCCCCC(=O)Nc1nnc(-c2ccc(Cl)cc2)s1)NO`, 0.988 µM. Still for that read-out and setting: to `O=C(CCCCCC(=O)Nc1nnc(-c2cccc(Cl)c2)s1)NO` belongs 0.847 µM; to `O=C(CCCCCC(=O)Nc1nnc(-c2ccccc2Cl)s1)NO`, 0.507 µM.

In the case of `O=C(CCCCCC(=O)Nc1nnc(-c2ccc(I)cc2)s1)NO`, the IC50 in assay [1] was 0.875 µM.

Take `CS(=O)(=O)c1ccc(-c2nnc(NC(=O)CCCCCC(=O)NO)s2)cc1`: the IC50 in assay [1] turned out to be 0.721 µM. As to `O=C(CCCCCC(=O)Nc1nnc(-c2ccc([N+](=O)[O-])cc2)s1)NO`, the IC50 in assay [1] is 0.709 µM. The compound `O=C(CCCCCC(=O)Nc1nnc(-c2ccc(C(F)(F)F)cc2)s1)NO` returned an IC50 in assay [1] of 1.154 µM. On the same count and under the same terms, to `O=C(CCCCCCC(=O)Nc1nnc(-c2ccc(N3CCOCC3)cc2)s1)NO` belongs over 5 µM. Turning to `O=C(CCCCCCC(=O)Nc1nnc(-c2ccc(-c3ccccc3)cc2)s1)NO`, the IC50 in assay [1] was over 5 µM. Same read-out and setting: with `O=C(CCCCCCC(=O)Nc1nnc(-c2cccc(Br)c2)s1)NO` the figure was 1.215 µM; with `O=C(CCCCCCC(=O)Nc1nnc(-c2ccccc2Br)s1)NO`, 0.526 µM.

Compound `O=C(CCCCCCC(=O)Nc1nnc(-c2ccc(I)cc2)s1)NO` gave an IC50 in assay [1] of over 5 µM. Same read-out and setting: with `CS(=O)(=O)c1ccc(-c2nnc(NC(=O)CCCCCCC(=O)NO)s2)cc1` the figure was 0.598 µM; with `O=C(CCCCCCC(=O)Nc1nnc(-c2ccc(C(F)(F)F)cc2)s1)NO`, over 5 µM; with `O=C(CCCCCC(=O)Nc1nnc(-c2cccc3ccccc23)s1)NO`, 3.186 µM. Same read-out and setting: to `O=C(CCCCCC(=O)Nc1nnc(-c2ccc3ccccc3c2)s1)NO` belongs over 5 µM. Consider `O=C(CCCCCC(=O)Nc1nnc(-c2cccnc2)s1)NO`, for which the IC50 in assay [2] was 54.4 µM; with K562, over 60 µM; in assay [1] it was 0.325 µM; with MDA-MB-231 it was 11.7 µM.

Regarding `O=C(CCCCCC(=O)Nc1nnc(-c2ccncc2)s1)NO`, the IC50 in assay [2] is over 60 µM; in the assay with K562, over 60 µM; in assay [1] it was 0.411 µM; in the assay with MDA-MB-231, 40.1 µM. As to `O=C(CCCCCC(=O)Nc1nnc(-c2ccco2)s1)NO`, in assay [1], the IC50 was determined as 0.434 µM. With `O=C(CCCCCC(=O)Nc1nnc(-c2cccs2)s1)NO`, the IC50 in assay [2] is over 60 µM; with K562, over 60 µM; in assay [1] it was 0.411 µM; in the assay with MDA-MB-231, 15.2 µM. On to `O=C(CCCCCCC(=O)Nc1nnc(-c2cccc3ccccc23)s1)NO`, for which, in assay [1], the IC50 is over 5 µM. On the same count and under the same terms, to `O=C(CCCCCCC(=O)Nc1nnc(-c2ccc3ccccc3c2)s1)NO` belongs over 5 µM.

`O=C(CCCCCCC(=O)Nc1nnc(-c2cccnc2)s1)NO`: the IC50 in assay [2] amounted to 7.98 µM; in the assay on K562 it was 4.36 µM; in assay [1], 0.386 µM; in the assay on MDA-MB-231, 1.87 µM. For the compound `O=C(CCCCCCC(=O)Nc1nnc(-c2ccncc2)s1)NO`, the IC50 in assay [2] came to 7.75 µM; with K562, 4.15 µM; in assay [1], 0.286 µM; in the assay on MDA-MB-231, 4.69 µM. In assay [1], `O=C(CCCCCCC(=O)Nc1nnc(-c2ccco2)s1)NO` gave an IC50 of 0.436 µM. With `O=C(CCCCCCC(=O)Nc1nnc(-c2cccs2)s1)NO`, the IC50 stood at 3.6 µM in assay [2], 1.56 µM in the assay with K562, 0.31 µM in assay [1] and 1.21 µM with MDA-MB-231.

On to `O=C(CCCCCCC(=O)Nc1ccccc1)NO` [VORINOSTAT], for which the IC50 in the assay with MDA-MB-231 stood at 2.29 µM.
